Assay: xn = mol fraction of the nth substance listed
Conditions: Liquid; for mass density: Vibrating tube method; for speed of sound: Frequency=3 MHz, Pulse-echo method

CCOC(F)(C(F)(F)C(F)(F)C(F)(F)F)C(F)(C(F)(F)F)C(F)(F)F (stereo not given) [2-trifluoromethyl-3-ethoxydodecafluorohexane] + CC(C)OC(C)C
Conditions | mass density, x1 = 0.25 [kg/m3] | mass density, x1 = 0.375 [kg/m3] | mass density, x1 = 0.5 [kg/m3] | mass density, x1 = 0.625 [kg/m3] | mass density, x1 = 0.75 [kg/m3] | speed of sound, x1 = 0.25 [m/s] | speed of sound, x1 = 0.375 [m/s] | speed of sound, x1 = 0.5 [m/s] | speed of sound, x1 = 0.625 [m/s] | speed of sound, x1 = 0.75 [m/s]
313.15 K, 50000 kPa | – | – | – | 1451.1 | 1541 | – | – | – | – | –
313.15 K, 60000 kPa | 1111.4 | 1244.1 | 1360.5 | 1464.9 | 1555.4 | 1065.1 | 1009.2 | 967.9 | 946.8 | 921.7
313.15 K, 70000 kPa | 1121.5 | 1255 | 1372.6 | 1477.7 | 1568.7 | – | – | – | – | –
313.15 K, 80000 kPa | 1130.9 | 1265.4 | 1383.8 | 1489.6 | 1581.1 | 1141.4 | 1082.8 | 1039.3 | 1017.4 | 990.1
313.15 K, 90000 kPa | 1139.7 | 1275.3 | 1394.3 | 1500.7 | 1592.6 | – | – | – | – | –
313.15 K, 100000 kPa | 1148 | 1284.4 | 1404.2 | 1511.1 | 1603.5 | 1209.6 | 1148.8 | 1102.9 | 1079.9 | 1050.9
313.15 K, 110000 kPa | 1156 | 1293.2 | 1413.7 | 1521.2 | 1614 | – | – | – | – | –
313.15 K, 120000 kPa | 1163.3 | 1301.3 | 1422.4 | 1530.6 | 1623.6 | – | – | – | – | –
313.15 K, 130000 kPa | 1170.4 | 1309.4 | 1431 | 1539.5 | 1633 | – | – | – | – | –
313.15 K, 140000 kPa | 1177.2 | 1316.8 | 1439 | 1548.1 | 1641.9 | – | – | – | – | –
323.15 K, 100 kPa | 1006.7 | 1127.2 | 1235 | 1332.2 | 1418.1 | 693.3 | 650 | 624.3 | 609.9 | 597.4
323.15 K, 10000 kPa | 1029 | 1152.3 | 1262 | 1360.8 | 1447.4 | – | – | – | – | –
323.15 K, 20000 kPa | 1047.5 | 1173 | 1284.2 | 1384.2 | 1471.7 | 841.6 | 794.7 | 761.3 | 745.2 | 726.1
323.15 K, 30000 kPa | 1063.3 | 1190.5 | 1303.2 | 1404.3 | 1492.5 | – | – | – | – | –
323.15 K, 40000 kPa | 1077.2 | 1206.1 | 1319.9 | 1421.9 | 1510.7 | 952.5 | 901 | 862.9 | 846.1 | 822.8
323.15 K, 50000 kPa | 1089.7 | 1220 | 1334.9 | 1437.6 | 1527.2 | – | – | – | – | –
323.15 K, 60000 kPa | 1101 | 1232.6 | 1348.5 | 1452 | 1542.2 | 1043.6 | 987.7 | 946.9 | 927.8 | 902.5
323.15 K, 70000 kPa | 1111.5 | 1244.2 | 1361 | 1465.1 | 1555.9 | – | – | – | – | –
323.15 K, 80000 kPa | 1121.1 | 1255 | 1372.5 | 1477.3 | 1568.7 | 1123.2 | 1063 | 1019.6 | 998.6 | 971.8
323.15 K, 90000 kPa | 1130.2 | 1265.1 | 1383.4 | 1488.8 | 1580.6 | – | – | – | – | –
323.15 K, 100000 kPa | 1138.8 | 1274.5 | 1393.7 | 1499.6 | 1591.9 | 1193.8 | 1129.2 | 1084.4 | 1061.6 | 1033.7
323.15 K, 110000 kPa | 1146.9 | 1283.5 | 1403.2 | 1509.8 | 1602.5 | – | – | – | – | –
323.15 K, 120000 kPa | 1154.5 | 1291.9 | 1412.4 | 1519.5 | 1612.5 | – | – | – | – | –
323.15 K, 130000 kPa | 1161.7 | 1299.9 | 1421.1 | 1528.7 | 1622.1 | – | – | – | – | –
323.15 K, 140000 kPa | 1168.7 | 1307.7 | 1429.4 | 1537.4 | 1631.3 | – | – | – | – | –
333.15 K, 100 kPa | 990.5 | 1109.5 | 1216.5 | 1312.3 | 1397.5 | 659.8 | 617.9 | 593.4 | 579.9 | 568.6
333.15 K, 10000 kPa | 1014.9 | 1137 | 1245.9 | 1343.3 | 1429.3 | – | – | – | – | –
333.15 K, 20000 kPa | 1034.7 | 1159.2 | 1269.8 | 1368.5 | 1455.3 | 816 | 769.7 | 737.4 | 720.8 | 703.1
333.15 K, 30000 kPa | 1051.5 | 1177.9 | 1290 | 1389.8 | 1477.3 | – | – | – | – | –
333.15 K, 40000 kPa | 1066.2 | 1194.2 | 1307.5 | 1408.4 | 1496.6 | 930.9 | 878.9 | 842 | 823.8 | 802.8
333.15 K, 50000 kPa | 1079.3 | 1208.8 | 1323.2 | 1424.9 | 1513.8 | – | – | – | – | –
333.15 K, 60000 kPa | 1091.1 | 1222 | 1337.3 | 1439.9 | 1529.4 | 1024.9 | 968.2 | 927.8 | 907.5 | 884.3
333.15 K, 70000 kPa | 1101.9 | 1234 | 1350.3 | 1453.7 | 1543.7 | – | – | – | – | –
333.15 K, 80000 kPa | 1112 | 1244.9 | 1362.3 | 1466.4 | 1556.9 | 1106.8 | 1044.5 | 1001.6 | 980 | 954.4
333.15 K, 90000 kPa | 1121.4 | 1255.4 | 1373.5 | 1478.4 | 1569.3 | – | – | – | – | –
333.15 K, 100000 kPa | 1130.3 | 1265.1 | 1384 | 1489.4 | – | – | 1111.7 | 1067.2 | 1043.9 | 1016.8

— the NIST ThermoML archive (doi:10.1016/j.jct.2018.08.005)
